Measurements as given in patent US5087624A, “Chromic picolinate treatment” (Nutrition 21, priority 1990, dated 1992).
Where “and” joins values, the source holds several entries; their conditions need not be identical. Identical values can stand only once. Entries after “also recorded” stand apart in the source; their conditions may differ.

Columns and labels:
[1] = supplemental trivalent chromium; cited from earlier work
[2] = Absorption of orally given Cr-51 labelled chromium: radioactivity in liver and kidney; type: in vivo, male Sprague-Dawley rats; details: relative to chromic chloride, from Table 1
Description: The solution was cooled to room temperature before use.

rats = experiment: Oral toxicity experiment; type: in vivo, rat
Procedure: In a toxicity experiment, rats weighing a mean of 223.4 g were given an oral suspension of 100 mg, 300 mg and 500 mg chromic tripicolinate in water. […] The tests were stopped at 500 mg because it was impossible to obtain a workable suspension beyond this level.

[3] = Double-blind cross-over study of serum lipids (EXAMPLE 3); type: in vivo, human
Procedure: The placebo contained only 5 mg calcium phosphate. […] Compliance by subjects was monitored by capsule count. The foregoing study protocol is illustrated in FIG. 1.
Student's t test and p values were determined with the program WORMSTAT^TM (available from Small Business Computers, New England, U.S.A.).

[4] = Cross-over study in subjects with adult onset diabetes mellitus (EXAMPLE 4); type: in vivo, human
Description: Normal values are 5.5% to 7.5%.

[5] = Anabolic effect in male weight-training students (EXAMPLE 5); type: in vivo, human
Procedure: This study was performed to evaluate the anabolic effect of chromic tripicolinate in male subjects.
At the start of the study, 10 male university students enrolled in weight training classes, were given, at random, a 40-day supply of capsules that contained either placebo (5 mg of calcium phosphate) or chromic tripicolinate (1.6 mg chromic tripicolinate admixed with 5 mg of […], which provided 200 ug of chromium). The identity of the capsules was known only to an individual who was not in any way involved in the study. During the 40-day period, each of the volunteers followed a prescribed weight lifting protocol for a total of 3 hours per week. Measurements taken at the beginning and again at the end of the study included various skin-fold thicknesses, bicep and calf circumferences, and body weight. Percent body fat was derived from the sum of the triceps, subscapular and chest skinfolds. Lean body mass was derived from anthropometrically-determined percent body fat: weight -(weight ×percent body fat).

insulin = experiment: Binding to insulin
insulin receptors = experiment: Binding to insulin receptors
[6] = system: Glucose Tolerance Factor activity; experiment: Glucose Tolerance Factor activity
[7] = start of 42-day treatment (baseline), mean ± SD of 28 subjects

In the case of `[Cl][Cr]([Cl])[Cl]` [chromic chloride], the “risk factors associated with maturity-onset diabetes and cardiovascular diseases” value [1] is listed as “associated with improvements of risk factors”.

For chromic tripicolinate, the “rate of absorption greater than that of chromic chloride” value [2] was “about 4 times”, the “dose to be ingested before any effects would be observed” value (rats; 70 Kg human, extrapolated from rat) was > 156 grams and the deaths (rats; oral suspension 100 mg, 300 mg and 500 mg in water) was “No deaths occurred”. For the same molecule, the oral lethal dose (rats; rats, oral) was > 2200 mg/kg, the “Apolipoprotein B reduction” value ([3]; 28 subjects, 42 days) was 16% and the LDL-cholesterol decrease ([3]; 28 subjects, 42 days) was 10%. The Total cholesterol decrease ([3]; 28 subjects, 42 days) was 7%, the “LDL-cholesterol change” value ([3]; 28 subjects, 42 days, p<0.001) was “significant (p<0.001) reductions” and the “Total cholesterol change” value ([3]; 28 subjects, 42 days, p<0.001) was “significant (p<0.001) reductions”. For the same molecule, the “Apolipoprotein B change” value ([3]; 28 subjects, p=0.001) was “decreased significantly”, the “Apolipoprotein A1 change” value ([3]; 28 subjects, p=0.003) was “significantly elevated” and the “fine rash about forearms” value ([3]; 200 micrograms Cr daily) was “one subject on chromium supplementation”. The mouth ulcers ([3]; 200 micrograms Cr daily) was “the other on chromium supplement”, the “blood pressure change” value ([3]; 42 days) was “No significant changes” and the “heart rate change” value ([3]; 42 days) was “No significant changes”. For the same molecule, the “serum triglycerides change” value ([3]; 42 days) was “No significant changes”, the “temperature change” value ([3]; 42 days) was “No significant changes” and the “weight change” value ([3]; 42 days) was “No significant changes”. For the same molecule, the “Apo B, Chng.” value ([3]; 42 days, 28 subjects, p = .001) was -25 mg/dL, the “Apo A, Chng.” value ([3]; 42 days, 28 subjects, p = .003) was “+16 mg/dl” and the “Apo B, Final” value ([3]; end of 42-day treatment, mean ± SD of 28 subjects) was 130 mg/dL. The “LDL-cholesterol change” value ([3]; final 42 days, placebo-first group, p=0.003) was “decreased significantly”, the “Total cholesterol change” value ([3]; final 42 days, placebo-first group, p=0.009) was “decreased significantly” and the “Apolipoprotein B change” value ([3]; first 6-week period, chromic tripicolinate-first group, p=0.003) was “significantly decreased”. For the same molecule, the “Total cholesterol change” value ([3]; first 6-week period, chromic tripicolinate-first group, p=0.007) was “significantly decreased”, the “LDL-cholesterol change” value ([3]; first 6-week period, chromic tripicolinate-first group, p=0.015) was “significantly decreased” and the “Apolipoprotein A1 change” value ([3]; first 6-week period, chromic tripicolinate-first group, p=0.047) was “significantly elevated”. For the same molecule, the other abnormalities ([3]; in vivo) was “No other abnormalities were noted”, the “subjects with decreased LDL-cholesterol” value ([3]; of final 28 subjects) was 20 and the “subjects with lower total cholesterol” value ([3]; of final 28 subjects) was 22. The “subjects with total cholesterol elevated less than 0.1 mmole/1 (5 mg/dl)” value ([3]; of final 28 subjects) was 4, the “subjects with unchanged LDL-cholesterol” value ([3]; of final 28 subjects) was 3 and the “subjects with unchanged total cholesterol” value ([3]; of final 28 subjects) was 2. For the same molecule, the “HDL-cholesterol change” value ([3]; p>0.05) was “increased slightly but not significantly”, the “Apolipoprotein B change” value ([3]; placebo-first group, after supplementation, p=0.072) was “decreased, but not significantly” and the “Apolipoprotein A1 change” value ([3]; placebo-first group, supplementation period, p=0.007) was “increased significantly”. The “Apo A, Init” value [3, 7] was 147 ± 28 mg/dL, the “Apo B, Init” value [3, 7] was 155 ± 50 mg/dL and 155 mg/dL and the “Apolipoprotein A1 change, summary” value ([3]; summary) was “elevated; also recorded: significant elevation”. The “Apolipoprotein B change, summary” value ([3]; summary) was “decreased; also recorded: significant reduction”, the “LDL-cholesterol change, summary” value ([3]; summary of Examples 3 and 4) was “decreased” and the “Total cholesterol change, summary” value ([3]; summary of Examples 3 and 4) was “decreased”. For the same molecule, the “HDL trend” value ([4]; P was not <0.05) was “trends were favorable”, the “cholesterol trend” value ([4]; P was not <0.05) was “trends were favorable” and the LDL decrease ([4]; diabetic subjects) was 8%. The “blood pressure change” value ([4]; diabetic subjects) was “no significant changes”, the “fasting glucose change” value ([4]; diabetic subjects) was “significant decreases” and the “glycosylated hemoglobin change” value ([4]; diabetic subjects) was “significant decreases”. For the same molecule, the “heart rate change” value ([4]; diabetic subjects) was “no significant changes”, the “temperature change” value ([4]; diabetic subjects) was “no significant changes” and the “weight change” value ([4]; diabetic subjects) was “no significant changes”. For the same molecule, the “Hemoglobin A1 C decrease” value ([4]; treatment versus placebo groups) was 12%, the bicep circumference increase ([5]; 40 days, P=0.0056) was 1.4±0.45 cm and the “calculated lean body mass increase” value ([5]; 40 days, P=0.017) was 1.6 kg. The “increase in lean body mass compared with placebo group” value ([5]; Student's t test, P=0.0198) was “significantly greater”, the “binding to insulin” value (insulin) was “binds to insulin” and the “binding to insulin receptors” value (insulin receptors) was “binds to insulin and insulin receptors”. The “Glucose Tolerance Factor activity” value [6] was “has Glucose Tolerance Factor activity”.
